# Results taken from PMC3770654, “Gastric Antimicrobial Peptides Fail to Eradicate Helicobacter pylori Infection Due to Selective Induction and Resistance” (PLoS ONE, 2013).
# Where two headings read alike, the source gives them in different places. No end group written: not given here.
# Tests used:
# [1] = test system: E. coli ATCC 25922; test: Flow cytometric viability assay with membrane potential sensitive dye DiBAC4(3); type: cell-based; conditions: 20 µg/ml peptide, 1.5x10^6 bacteria/ml in Schaedler Broth 1:6, 37°C, 90 minutes, then DiBAC4(3) 10 minutes, 10000 events
# Procedure: (§1) The clinical isolate H. pylori KaE1 and the reference strains H. pylori DSM 9691, DSM 10242 and DSM 21031 were tested for susceptibility towards defensins, LL37 and elafin (amino acid sequences Table S1). The strain H. pylori DSM 10242 is positive for the virulence factors VacA and CagA. As control strain for antimicrobial activity served the sensitive E. coli ATCC 25922.
# (§2) Bacterial viability after incubation with antimicrobial peptides or biopsy extracts was analyzed with the membrane potential sensitive dye DiBAC4(3) (bis-(1,3-dibutylbarbituric acid) trimethine oxonol) (Invitrogen, Carlsbad, CA, USA) as described previously. Briefly, 1.5x10^6 mid-logarithmic-phase bacteria/ml of H. pylori or E. coli in Schaedler Broth 1:6 were incubated with 20 µg/ml HBD1-4 (Peptide Institute, Osaka, Japan), elafin (Proteo Biotech, Kiel, Germany for FACS analysis and RDA and elafin from Peptide Institute, Osaka for CFU determination), with LL37 (Innovagen, Lund, Sweden) or with 10 µg total protein of antrum biopsy extracts at 37°C. After 90 minutes 1 µg/ml DiBAC4(3) was added to the suspensions and further incubated for 10 minutes. Then, the suspensions were centrifuged with 4500 x g for 10 minutes, pellets resuspended in 300 µl PBS and bacterial fluorescence was analyzed by a FACSCalibur^TM (BD, Sparks, USA), using Cell Quest software (BD, Sparks, USA). In each sample 10000 bacterial events were analyzed for green fluorescence and the antimicrobial activity was determined as percentage of depolarized, fluorescent bacteria. Inhibition of bacterial growth was tested by plating aliquots on Columbia blood agar and incubating at 37 C° for 2 days in a microaerophilic atmosphere with CampyGen (Oxoid, Hampshire, UK). Then colony forming units (CFU) were counted.
# [2] = test system: H. pylori KaE1, DSM 9691, DSM 10242 and DSM 21031; test: Flow cytometric viability assay with DiBAC4(3), four H. pylori strains; type: cell-based; conditions: all 4 H. pylori strains; 20 µg/ml peptide, Schaedler Broth 1:6, 37°C, 90 minutes, DiBAC4(3)
# Procedure: as §1
# (§3) H. pylori strains were cultured on Columbia blood agar at 37 C° for 2 days in a microaerophilic atmosphere with CampyGen (Oxoid, Hampshire, UK). Subsequently the bacteria were suspended in Schaedler Broth (BD, Sparks, USA) diluted 1:6 with aqua dest. for incubation with antimicrobial peptides.
# as §2
# [3] = test system: H. pylori; conditions: cited from earlier work; for growth inhibition: ref 19 Kawauchi et al.
# Excerpt: Previously, Hase et al. had tested two H. pylori strains against the antimicrobials HBD1, HBD2 and LL37 and […], one strain tested was resistant to HBD1, while the second strain was sensitive. […] In the study by Hase et al. […] Th ...
# [4] = test system: H. pylori KaE; test: Plating on Columbia blood agar with CFU counting; type: cell-based; conditions: peptide 20 µg/ml, means of two independent experiments, control 1.42 x 10^6
# Procedure: as §3, §2
# [5] = test system: H. pylori DSM 10242; test: Plating on Columbia blood agar with CFU counting; type: cell-based; conditions: peptide 20 µg/ml, means of two independent experiments, control 6.10 x 10^5
# Procedure: as §3, §2
# [6] = test system: H. pylori DSM 21031; test: Plating on Columbia blood agar with CFU counting; type: cell-based; conditions: peptide 20 µg/ml, means of two independent experiments, control 7.45 x 10^5
# Procedure: as §3, §2
# [7] = test system: H. pylori DMS 9691; test: Plating on Columbia blood agar with CFU counting; type: cell-based; conditions: peptide 20 µg/ml, means of two independent experiments, control 8.85 x 10^5
# Procedure: as §3, §2
# [8] = test system: H. pylori KaE1, DSM 9691, DSM 10242 and DSM 21031; test: Radial diffusion assay, four H. pylori strains; type: cell-based; conditions: 20 µg peptide per well, 3 days, 37 °C; for zones of inhibition in radial diffusion assay: all four Helicobacter strains, microaerophilic
# Procedure: (§4) Additionally to determine inhibition of bacterial growth we performed radial diffusion assays with a modified protocol of the procedure from Robert Lehrer et al.. Briefly, H. pylori was grown on Columbia blood agar (BD, Sparks, USA), suspended in Brain Heart Infusion diluted 1:5 with aqua dest. and plated on an agar containing 20% brain heart infusion with 5% fetal calf serum. Wells with 3 mm diameter were punched into the agar and peptides were applied equivalent to the flow cytometric assay in a concentration of 20 µg per well. The agar plates were incubated for 3 days at 37 °C in a microaerophilic atmosphere with CampyGen.
# [9] = test system: H. pylori DSM 10242; test: Flow cytometric viability assay with DiBAC4(3); type: cell-based; conditions: 20 µg/ml peptide, 37°C, 90 minutes
# Procedure: as §1, §3
# (§5) Bacterial viability after incubation with antimicrobial peptides or biopsy extracts was analyzed with the membrane potential sensitive dye DiBAC4(3) (bis-(1,3-dibutylbarbituric acid) trimethine oxonol) (Invitrogen, Carlsbad, CA, USA) as described previously. […] Then, the suspensions were centrifuged with 4500 x g for 10 minutes, pellets resuspended in 300 µl PBS and bacterial fluorescence was analyzed by a FACSCalibur^TM (BD, Sparks, USA), using Cell Quest software (BD, Sparks, USA). In each sample 10000 bacterial events were analyzed for green fluorescence and the antimicrobial activity was determined as percentage of depolarized, fluorescent bacteria. […] Then colony forming units (CFU) were counted.
# [10] = test system: H. pylori KaE1; test: Flow cytometric viability assay with DiBAC4(3); type: cell-based; conditions: 20 µg/ml peptide, 37°C, 90 minutes
# Procedure: as §1, §3, §5
# [11] = test system: H. pylori KaE1; test: Transmission electron microscopy of peptide-treated bacteria; type: cell-based; conditions: H. pylori KaE1, 1.5x10^8 bacteria, 200 µg peptide/ml, 2 hours
# Procedure: For electron microscopy 1.5x10^8 bacteria were incubated with 200 µg peptide/ml for 2 hours. Subsequently bacteria were fixed with Karnovsky solution, embedded in agarose, coagulated, cut in blocks and fixed once more in Karnovsky. After post fixation and embedding in glycid ether the specimen were cut with an ultra microtome. Sections of 30 nm were rinsed on copper grids and investigated with a Zeiss LIBRA 120 transmission electron microscope.
# [12] = test system: H. pylori KaE1; test: Radial diffusion assay; type: cell-based; conditions: 20 µg peptide per well, 3 days, 37 °C
# Procedure: as §4
# [13] = test system: H. pylori DSM 21031; test: Radial diffusion assay; type: cell-based; conditions: 20 µg peptide per well, 3 days, 37 °C
# Procedure: as §4
# [14] = test system: H. pylori; test: Binding of antimicrobial peptides to bacterial cells (flow cytometry, Streptavidin-PE); conditions: 20 µg/ml biotinylated LL37 or 20 µg/ml HBD2 with biotinylated HBD2-antibody, 30 minutes
# Procedure: (§6) To investigate whether HBD2 and LL37 bind to the bacterial cell membrane, we incubated E. coli or H. pylori in Schaedler Broth 1:6 with 20 µg/ml biotinylated LL37 (Innovagen, Lund, Sweden) or 20 µg/ml HBD2 (Peptide Institute, Osaka, Japan) for 30 minutes. After centrifugation a biotinylated HBD2-antibody was added to the in PBS resuspended pellet of the HBD2 samples (Peprotech, Hamburg, Germany). Following washing with PBS, binding of biotinylated LL37 or of the HBD2-antibody was detected with Streptavidin-PE (BD Biosciences, Heidelberg, Germany). Suspensions incubated with HBD2 antibody and Streptavidin served as control. Fluorescence 2 of 10 000 events was measured with the FACSCalibur.
# [15] = test system: E. coli ATCC 25922; test: as above; conditions: 20 µg/ml biotinylated LL37 or 20 µg/ml HBD2 with biotinylated HBD2-antibody, 30 minutes
# Procedure: as §6
Substance,depolarized bacteria [1],depolarized bacteria [2],Colony forming units [4],Colony forming units [5],Colony forming units [6],Colony forming units [7],zones of inhibition in radial diffusion assay [8],disintegration of bacterial cells (electron microscopy) [11],binding to the bacterial surface [14],binding to the bacterial surface [15],also measured
"Asp - His - Tyr - Asn - Cys - Val - Ser - Ser - Gly - Gly - Gln - Cys - Leu - Tyr - Ser - Ala - Cys - Pro - Ile - Phe - Thr - Lys - Ile - Gln - Gly - Thr - Cys - Tyr - Arg - Gly - Lys - Ala - Lys - Cys - Cys - Lys (disulfide) [HBD1, recombinant constitutive defensin HBD1 (gene name DEFB1), Peptide Institute, Osaka]",37%,less than 5%,1.32 x 10^6 CFU/ml,6.85 x 10^5 CFU/ml,7.15 x 10^5 CFU/ml,8.61 x 10^5 CFU/ml,no zones of inhibition,–,–,–,"eradication (CFU) ([3]; 10^-5 M recombinant HBD1 in hypotonic buffer, ref 21 George et al.): absolute eradication; reduction of CFU ([3]; 10^-7 M recombinant HBD1 in hypotonic buffer, ref 21 George et al.): about 50%"
"ELDRICGYGTARCRKKCRSQEYRIGRCPNTYACCLRK (disulfide (positions not given here)) [HBD4, recombinant defensin HBD4 (DEFB104A), Peptide Institute, Osaka]",43%,–,1.26 x 10^6 CFU/ml,4.95 x 10^5 CFU/ml,6.90 x 10^5 CFU/ml,8.25 x 10^5 CFU/ml,no zones of inhibition,–,–,–,depolarization level [9]: 12%; depolarization level [10]: 8%
"Gly - Ile - Gly - Asp - Pro - Val - Thr - Cys - Leu - Lys - Ser - Gly - Ala - Ile - Cys - His - Pro - Val - Phe - Cys - Pro - Arg - Arg - Tyr - Lys - Gln - Ile - Gly - Thr - Cys - Gly - Leu - Pro - Gly - Thr - Lys - Cys - Cys - Lys - Lys - Pro (disulfide) [HBD2, human beta defensin 2, recombinant inducible defensin HBD2 (DEFB4A), Peptide Institute, Osaka]",51%,less than 5%,0.89 x 10^6 CFU/ml,5.92 x 10^5 CFU/ml,6.07 x 10^5 CFU/ml,7.90 x 10^5 CFU/ml,–,much less disintegration,accumulated on the surface,accumulated on the surface,"growth inhibition ([3]; 30 µg/ml HBD2): 70%; growth inhibition ([3]; 50 µg/ml HBD2): complete inhibition; effect on bacterial viability ([3]; ref 20 Hase et al.): no effect on bacterial viability; zones of inhibition in radial diffusion assay [12]: small inhibition zones; zones of inhibition in radial diffusion assay [13]: small inhibition zones; growth in radial diffusion assay ([8]; the two other strains (not KaE1, not DSM 21031)): not influenced"
"Gly - Ile - Ile - Asn - Thr - Leu - Gln - Lys - Tyr - Tyr - Cys - Arg - Val - Arg - Gly - Gly - Arg - Cys - Ala - Val - Leu - Ser - Cys - Leu - Pro - Lys - Glu - Glu - Gln - Ile - Gly - Lys - Cys - Ser - Thr - Arg - Gly - Arg - Lys - Cys - Cys - Arg - Arg - Lys - Lys (disulfide) [HBD3, recombinant inducible defensin HBD3 (DEFB103A), Peptide Institute, Osaka]",90%,34-78%,0.08 x 10^6 CFU/ml,1.14 x 10^5 CFU/ml,1.55 x 10^5 CFU/ml,0.20 x 10^5 CFU/ml,pronounced zones,more pronounced disintegration,–,–,effectiveness against H. pylori among defensins ([3]; ref 21 George et al.): most effective against H. pylori
"Leu - Leu - Gly - Asp - Phe - Phe - Arg - Lys - Ser - Lys - Glu - Lys - Ile - Gly - Lys - Glu - Phe - Lys - Arg - Ile - Val - Gln - Arg - Ile - Lys - Asp - Phe - Leu - Arg - Asn - Leu - Val - Pro - Arg - Thr - Glu - Ser [LL37, amphipathic α-helical cathelicidin LL37 (CAMP), Innovagen, Lund]",87%,62-85%,0.09 x 10^6 CFU/ml,0.15 x 10^5 CFU/ml,0.41 x 10^5 CFU/ml,0.35 x 10^5 CFU/ml,pronounced zones,–,accumulated on the surface,accumulated on the surface,–
